Measured values as given in patent US4137241A, “Deoxy-(0-8)-epi-17-salinomycin (1)” (priority 1977, dated 1979).
Converted amounts (≈) assume the structure as drawn.

Tests used:
[1] = test system: DOCA Na rat; test: Antihypertensive activity in the DOCA Na rat, five-day oral dosing, systolic blood pressure; assay type: in vivo
Procedure: (§1) A test was conducted for antihypertensive activity in the DOCA Na rat. DOCA rats weighing 170 to 210 grams are used in the test. DOCA Na Hypertension is induced by unilateral nephrectomy followed by subcutaneous implantation of a 25 mg. desoxycorticosterone (DOCA) pellet. Animals are placed in individual cages receiving 0.9% sodium chloride solution to drink and rat chow diet ad libitum. Two weeks are allowed to elapse from the time of surgery for development of hypertension, i.e., systolic blood pressure of at least 150 mmHg.
(§2) Systolic blood pressure and heart rate are measured indirectly from the tail pressure pulse of unanesthetized rats, using a pneumatic pulse transducer. Control readings are taken prior to drug and post drug readings are taken at 1, 3, 6 and 24 hours.
(§3) The experimental results are represented as absolute values. Drug-related alterations in systolic blood pressure are expressed as percentage change by comparing control absolute values with post drug absolute values. Compounds are considered active when about a 15% or greater reduction in blood pressure is obtained. However, the reduction in blood pressure must show mathematical significance ([…]).
A derivative of the polyether ionophore, lasalocid, i.e., the bromo derivative of lasalocid, was tested in the above screen. The compound was orally administered for a five-day period by intubation and thereafter dosing was discontinued but blood pressure monitoring was continued. The following table illustrates the results obtained utilizing bromolasalocid as the test drug.

[2] = Oral (per os) toxicity (LD50); conditions: in vivo
[3] = test system: Sarcina lutea; test: Antimicrobial spectrum, agar diffusion technique; assay type: cell-based; conditions: Micrococcus luteus
Source text: (§4) M.I.C. Values in mcg/ml utilizing the
(§5) Test Organism agar diffusion technique

[4] = test system: Candida albicans; test: Antimicrobial spectrum, agar diffusion technique; assay type: cell-based
Source text: as §4, §5

[5] = test system: Bacillus subtilis; test: Antimicrobial spectrum, agar diffusion technique; assay type: cell-based
Source text: as §4, §5

[6] = test system: Bacillus sp. TA; test: Antimicrobial spectrum, agar diffusion technique; assay type: cell-based
Source text: as §4, §5

[7] = test system: Staphylococcus aureus; test: Antimicrobial spectrum, agar diffusion technique; assay type: cell-based
Source text: as §4, §5

[8] = test system: Paecilomyces varioti; test: Antimicrobial spectrum, agar diffusion technique; assay type: cell-based
Source text: as §4, §5

[9] = test system: Bacillus sp. E; test: Antimicrobial spectrum, agar diffusion technique; assay type: cell-based
Source text: as §4, §5

[10] = test system: Bacillus megaterium; test: Antimicrobial spectrum, agar diffusion technique; assay type: cell-based; conditions: Priestia megaterium
Source text: as §4, §5

[11] = test system: Actinomyces cellulosae; test: Antimicrobial spectrum, agar diffusion technique; assay type: cell-based; conditions: Streptomyces cellulosae
Source text: as §4, §5

[12] = test system: Mycobacterium phlei; test: Antimicrobial spectrum, agar diffusion technique; assay type: cell-based; conditions: Mycolicibacterium phlei
Source text: as §4, §5

[13] = test system: DOCA-Na. rat; test: Subacute antihypertensive activity in the DOCA-Na rat versus bromolasalocid (AHR, onset, duration); assay type: in vivo
Procedure: as §1, §2
as §3, with “Compounds are considered active when about a 15% or greater reduction in blood pressure is obtained.” left out
Using bromolasalocid as a standard for comparison, a number of the novel episalinomycin of the present invention was tested for antihypertensive activity. The tests were conducted utilizing single oral dosages in the DOCA-Na. rat over a five-day period with dosing discontinued thereafter. Blood pressure monitoring was carried out for the five-day period and daily after cessation of dosing until blood pressure returned to predrug levels. […] The antihypertensive activity expressed as AHR (Subacute antihypertensive ratio) was calculated using bromolasalocid as the standard reference (Table III).

[14] = daily oral dose 1/100 of LD50 up to 10 mg/kg/day, five days

CC[C@@H](C(=O)[C@@H](C)[C@@H](O)[C@H](C)CCc1c(Br)cc(C)c(O)c1C(=O)O)[C@H]1O[C@](CC)([C@H]2CC[C@](O)(CC)[C@H](C)O2)C[C@@H]1C [Bromolasalocid]
Average Systolic Blood Pressure Per Group ([1]; 5 mg/kg per day oral for 5 days, Day 1 pm, pre-drug control (Day 1 am) 209): 193 mmHg
Average Systolic Blood Pressure Per Group ([1]; 5 mg/kg per day oral for 5 days, Day 2 am, pre-drug control 209): 206 mmHg
Average Systolic Blood Pressure Per Group ([1]; 5 mg/kg per day oral for 5 days, Day 2 pm, pre-drug control 209): 194 mmHg
Average Systolic Blood Pressure Per Group ([1]; 5 mg/kg per day oral for 5 days, Day 3 am, pre-drug control 209): 204 mmHg
Average Systolic Blood Pressure Per Group ([1]; 5 mg/kg per day oral for 5 days, Day 3 pm, pre-drug control 209): 191 mmHg
Average Systolic Blood Pressure Per Group ([1]; 5 mg/kg per day oral for 5 days, Day 4 am, pre-drug control 209): 206 mmHg
Average Systolic Blood Pressure Per Group ([1]; 5 mg/kg per day oral for 5 days, Day 4 pm, pre-drug control 209): 201 mmHg
Average Systolic Blood Pressure Per Group ([1]; 5 mg/kg per day oral for 5 days, Day 5 am, pre-drug control 209): 197 mmHg
Average Systolic Blood Pressure Per Group ([1]; 5 mg/kg per day oral for 5 days, Day 5 pm, pre-drug control 209): 196 mmHg
Average Systolic Blood Pressure Per Group ([1]; 10 mg/kg per day oral for 5 days, Day 1 pm, p < .05, pre-drug control (Day 1 am) 217): 192 mmHg
Average Systolic Blood Pressure Per Group ([1]; 10 mg/kg per day oral for 5 days, Day 2 am, p < .05, pre-drug control 217): 181 mmHg
Average Systolic Blood Pressure Per Group ([1]; 10 mg/kg per day oral for 5 days, Day 2 pm, p < .05, pre-drug control 217): 166 mmHg
Average Systolic Blood Pressure Per Group ([1]; 10 mg/kg per day oral for 5 days, Day 3 am, p < .05, pre-drug control 217): 171 mmHg
Average Systolic Blood Pressure Per Group ([1]; 10 mg/kg per day oral for 5 days, Day 3 pm, p < .05, pre-drug control 217): 163 mmHg
Average Systolic Blood Pressure Per Group ([1]; 10 mg/kg per day oral for 5 days, Day 4 am, p < .05, pre-drug control 217): 173 mmHg
Average Systolic Blood Pressure Per Group ([1]; 10 mg/kg per day oral for 5 days, Day 4 pm, p < .05, pre-drug control 217): 157 mmHg
Average Systolic Blood Pressure Per Group ([1]; 10 mg/kg per day oral for 5 days, Day 5 am, p < .05, pre-drug control 217): 176 mmHg
Average Systolic Blood Pressure Per Group ([1]; 10 mg/kg per day oral for 5 days, Day 5 pm, p < .05, pre-drug control 217): 166 mmHg
Period blood pressure remained below control after drug dosing ([1]; after dosing for the first five consecutive days): 10 days

CCC(C(=O)O)C1CCC(C)C(C(C)C(O)C(C)C(=O)C(CC)C2OC3(C=CCC4(CCC(C)(C5CCC(O)(CC)C(C)O5)O4)O3)C(C)CC2C)O1 (stereo not drawn) [Deoxy-(0-8)-epi-17-salinomycin, 6-[5-[2'-(5"-Ethyltetrahydro-5"-hydroxy-6"-methyl-(2"H)-pyran-2"-yl]-2' ,12' ,14'-trimethyl-1',10' ,15'-trioxadispiro[4.3.5.1]pentadec-7'-en-11'-yl]-5-ethyl-1,3-dimethyl-2-hydroxy-4-oxopentyl]-alpha-ethyl-tetrahydro-5-methyl-(2H)-pyran-2-acetic acid]
LD50 [2]: > 1000 mg/kg
MIC [3]: 25 µg/mL (≈ 34 µM)
MIC [4]: 2000 µg/mL (≈ 2720 µM)
MIC [5]: 6.25 µg/mL (≈ 8.5 µM)
MIC [6]: 6.25 µg/mL (≈ 8.5 µM)
MIC [7]: 25 µg/mL (≈ 34 µM)
MIC [8]: 15.7 µg/mL (≈ 21.4 µM)
MIC [9]: 6.25 µg/mL (≈ 8.5 µM)
MIC [10]: 6.25 µg/mL (≈ 8.5 µM)
MIC [11]: 250 µg/mL (≈ 340 µM)
MIC [12]: 500 µg/mL (≈ 680 µM)
antihypertensive activity (in words) ([13]; DOCA-Na rat, oral, five-day period): exhibited antihypertensive activity
Duration of Effect [13, 14]: 4 days
Onset to Max. Response [13, 14]: 3 days
